These results are taken from a melting point compilation (Tetko et al.; mined from patent text by program, amines drawn as free bases though some values may be those of a salt).

Turning to `COC(=O)c1cc(=O)n(-c2c(Cl)cc(C(F)(F)F)cc2Cl)[nH]1`, the melting point (commonly the temperature of the solid-liquid transition) is 245 to 246 °C.

With `COc1ccc(CCN2CCC(C(O)(c3cccs3)c3cccs3)CC2)cc1`, the melting point was in the range of 153 to 155 °C.

`OCc1cc(I)cc(I)c1I` had a melting point of 156 to 159 °C.

`Cc1c(SCCN2CCc3ccccc3C2)ccnc1CSc1nc2ncccc2[nH]1` came in with a melting point of 180 °C.

In the case of `CCCCCCCCCCCCCCCCCCSC(C)CCO` (stereo unspecified), the melting point is 35 to 38 °C.

The compound `COc1cc(C)c2c(c1OC)CCC1C(=O)N(C)C(=O)C21` (stereo unspecified) yielded a melting point of 167 to 169 °C.

Compound `Cc1nc(N)sc1-c1ccnc(Nc2ccc(N3CCSCC3)cc2)n1` displayed a melting point of 180 to 182 °C.

`O=C1O[C@@H]2C[C@@]1(O)C[C@H]1OC(c3ccccc3)O[C@@H]21` (stereo partly specified): the melting point fell in the range of 96 to 97 °C.

In turn, `CCCc1c(OCCCCCOc2ccc3ccc(OCC(=O)O)cc3c2C(C)=O)ccc(C(C)=O)c1O` returned a melting point of 103 to 106 °C.

For `CC(=S)NC[C@H]1CN(c2ccc3c(c2)CCCc2cn[nH]c2-3)C(=O)O1`, the melting point is 190 to 195 °C.

`CC(=O)NC[C@H]1CN(c2ccc(N3CCC(F)(F)CC3)c(F)c2)C(=O)O1` had a melting point of 192 to 194 °C.

Take `COc1ccc(/C=C/C(=O)N2CC(CCl)c3c2cc(O)c2ncccc32)cc1` (stereo unspecified): the melting point was in the range of 208 to 211 °C.

Take `N#CCc1c[nH]c2cccc(Cl)c12`: the melting point lay within 134 to 136 °C.

Compound `N#CCc1c[nH]c2ccc(NC(=O)c3ccc[nH]3)cc12` returned a melting point of 216 to 218 °C.

In turn, `CN(C)CCOc1ccc(Nc2ncc3c(n2)N(C)C(=O)N(c2c(Cl)cccc2Cl)C3)cc1` had a melting point of 173 to 174 °C.

The compound `Clc1ccc(CN2CC=C(C=Cc3ccsc3)CC2)cc1` had a melting point of 125 to 127 °C.

Compound `CS(=O)(=O)C(=C1CN(C(c2ccccc2)c2ccccc2)C1)c1cccc2ccccc12` came in with a melting point of 196 °C.

Compound `CCOC(=O)Cc1ccc2oc3ccccc3c(=O)c2c1` showed a melting point of 97 to 98 °C.

In turn, `CN1C(=O)CCC2(C)c3ccc(C(=O)c4ccccc4Cl)cc3CCC12` (stereo unspecified) showed a melting point of 105 to 115 °C.

Take `CCc1cc(=O)c2cc(C(C)C(=O)O)ccc2o1` (stereo unspecified): the melting point is 128 °C.

As for `Nc1ccccc1-c1nc(CCS(=O)(=O)CCO)no1`, the melting point lay in the range of 118 to 119 °C.

In turn, `COc1cc(-c2nc3ccc(OCCN(C)C)cc3n2Cc2ccccc2)cc(OC)c1OC` registered a melting point of 108 °C.

The compound `COC(=O)NCCc1cccc(-c2ccnc3c(C#N)cnn23)c1` yielded a melting point of 162 to 164 °C.

As for `CN1CCc2c(Cl)csc2C(c2ccccc2)C1` (stereo unspecified), the melting point was determined as 67 °C.

On to `CC(C)(C)C1=NN(c2ccc(C(=O)O)cc2)C(c2cccc([N+](=O)[O-])c2)C1` (stereo unspecified), for which the melting point was found to be 235 °C.

Consider `CN(C)CCc1[nH]c2ccccc2c1CSc1ccc(Cl)cc1`, for which the melting point fell in the range of 115 to 117 °C.

For the compound `Brc1ccccc1-c1nnnn1C(c1ccccc1)(c1ccccc1)c1ccccc1`, the melting point is 160 to 162 °C.

In turn, `O=S(=O)(Nc1cnc(-n2ccnc2)nc1NCc1ccc2c(c1)OCO2)c1ccc(Cl)cc1` yielded a melting point of 206 to 207 °C.

Regarding `O=C(O)COc1ccc(Cl)cc1-c1ccc(C(=O)N2CCCC2)c(C(F)(F)F)c1`, the melting point was in the range of 197 to 198 °C.

On to `Cc1oc2c(Br)cc(C3CCN(Cc4ccccc4)CC3)cc2c1C`, for which the melting point is 86 to 91 °C.

Turning to `CC(C)(C)OC(=O)NC1Cc2ccc(NC(=O)c3ccccc3-c3ccc(C(F)(F)F)cc3)cc2C1` (stereo unspecified), the melting point lay within 198 to 201 °C.

`CC(C)C(=O)NC1CCc2c(c3cc(Br)ccc3n2Cc2cccc(F)c2)C1` (stereo unspecified) registered a melting point of 177 to 179 °C.

For the compound `COc1ccc(-c2cnc(-c3ccc(Cl)cc3)nc2-c2ccc(OC)cc2)cc1`, the melting point lay in the range of 151 to 153 °C.

For the compound `O=C(O)Cc1cc(C(=O)c2cccc(F)c2)ccc1O`, the melting point is 171 °C.

In the case of `COc1cc2c(cc1OCc1ccccc1)C(c1ccccc1)=NCC2`, the melting point lay within 134 to 137 °C.

Consider `O=C(O)CNS(=O)(=O)c1ccc(N2CCC(c3ccccc3)CC2)cc1`, for which the melting point fell in the range of 154 to 156 °C.

`CCOC(=O)/C(=N\OCC#N)c1csc(N)n1` returned a melting point of 167 to 168 °C.

With `CC(=O)OCCC1CCC2C3CCC4CCCCC4(C)C3CCC12C` (stereo unspecified), the melting point fell in the range of 123 to 125 °C.

`Cc1cc2c(s1)C(C(=O)Nc1ccccc1)C(=O)N(C)S2(=O)=O` (stereo unspecified) came in with a melting point of 182 to 184 °C.

For `Cc1cnc(NN)nc1N`, the melting point lay within 174 to 175 °C.

`COc1ccc(C(=O)c2cccc(C(=O)O)c2)c(O)c1` returned a melting point of 229 to 236 °C.

In turn, `CCCn1c(SC)nc2ccsc2c1=O` displayed a melting point of 142 to 144 °C.

On to `COc1ccc(Sc2c([N+](=O)[O-])ccc(Cl)c2C(=O)O)cc1`, for which the melting point was 154 to 157 °C.

`N#Cc1ccc(N2CCC(F)(F)C2)c2ccccc12`: the melting point was in the range of 68 to 69 °C.

In turn, `Cc1cc2c(-c3ccccc3)c(NC(=O)NCc3ccccc3N)n(C)c(=O)c2cc1C` returned a melting point of 218 °C.

In turn, `COc1ccc(CCNC(=O)C(=O)NCCCCCCNC(=O)OC(C)(C)C)cc1OC1CCCC1` came in with a melting point of 135 to 137 °C.

Take `CC(C(=S)c1cccc(NC=O)n1)S(C)=O` (stereo unspecified): the melting point was in the range of 130 to 132 °C.

Compound `CCCC(=O)c1cnc2ccccc2c1Nc1ccccc1C` yielded a melting point of 107 to 109 °C.

Take `O=C(C1CCN(S(=O)(=O)c2ccc(Br)cc2)CC1)N1CCN(c2ccncn2)CC1`: the melting point is 171 to 174 °C.

As for `Cn1cc(O)c(=O)c2cccc(F)c21`, the melting point was 248 °C.

The compound `CC(C)(C)OC(=O)NNC(=O)c1ccnc2[nH]c(CCc3ccccc3)cc12` gave a melting point of 187 to 188 °C.

Compound `Cn1c([N+](=O)[O-])cnc1C(C)(C)O` had a melting point of 102 to 107 °C.

`CC(=O)Oc1cc(C)cc2c1C1=C(CCC(C)C1)C(C)(C)O2` (stereo unspecified) showed a melting point of 115 to 119 °C.

For `O=C1N=c2ccccc2=C1C1CCNCC1`, the melting point worked out at 156 °C.

`Cc1cc(OCC(O)CNC(C)(C)C)ccc1-c1nc(C(F)(F)F)c[nH]1` (stereo unspecified): the melting point was 162 to 164 °C.

`Cc1c2c(cnc3ccccc32)nn1-c1ccccc1` displayed a melting point of 128 to 130 °C.

In the case of `CC(=O)OCc1nn(-c2ccc(F)cc2)c2c1CCCC2Cc1cccc2ccccc12` (stereo unspecified), the melting point was in the range of 142 to 144 °C.

On to `Cc1cc(Br)sc1-c1nc(-c2c(F)cccc2Cl)nn1C`, for which the melting point is 117 to 118 °C.

In turn, `Oc1ccc2nc(Nc3ccccc3)cnc2c1` showed a melting point of 211 to 213 °C.

`Cc1ccc(-n2ccc3c(Cl)nn(C)c(=O)c32)c(C)c1` had a melting point of 119 to 120 °C.

In turn, `Cc1ncc2cc(-c3ccc(F)cc3)c(N)nc2n1` showed a melting point of 252 to 254 °C.

`CCN(c1nc(C)cc(-c2ccccc2C(=O)O)n1)c1ccc(C(C)C)cc1Br` gave a melting point of 209 to 210 °C.

For the compound `O=Cc1ccccc1OC(=O)C(=O)Oc1ccccc1C=O`, the melting point fell in the range of 134 to 135 °C.

With `CC(=O)NCC1CC1c1c(C2CC2)ccc2nn(C)cc12` (stereo unspecified), the melting point was in the range of 102 to 103 °C.

For `CC(C)(C)c1ccc(C2CC(=O)c3ccccc3O2)cc1` (stereo unspecified), the melting point was 103 to 104 °C.

As for `Cc1nnc2n1-c1ccc([N+](=O)[O-])cc1C(c1ccccc1Cl)=NC2`, the melting point lay within 231 to 233 °C.

On to `O=C(C[C@@H](NC(=O)C(F)(F)F)C(=O)O)c1ccc(F)c(F)c1`, for which the melting point lay in the range of 136 to 137 °C.

The compound `COc1ccc(OC)c2nc(Cl)c(CCCl)cc12` gave a melting point of 108 to 110 °C.

`COc1ccc2c(c1)C(=O)N(CCCN(C)CCN1C(=O)c3ccccc3C(C)(C)C1=O)C(=O)C2(C)C` displayed a melting point of 158 °C.

Take `O=C(CNS(=O)(=O)c1ccccc1)c1ccc(OCc2ccccc2)cc1`: the melting point lay in the range of 148 to 149 °C.

In the case of `CC(=O)N(C1=C(NC(C)C)C(=O)c2c(cnn2C)C1=O)C(C)C`, the melting point was 123 to 126 °C.

The compound `CC(=NOCc1ccc(Cl)s1)C1=C(O)CC(C2CCCSC2)CC1=O` (stereo unspecified) showed a melting point of 154 to 155 °C.

In turn, `N=C(NO)c1ccc2cc(O)c(O)cc2c1` gave a melting point of 238 to 243 °C.

In the case of `O=Cc1ccc2c(c1)S(=O)c1ccccc1CC2` (stereo unspecified), the melting point fell in the range of 158 to 160 °C.

Regarding `Cc1cc(N2CCN(c3nc(-c4ccccc4)nc(C)c3C)CC2)cc(C)c1O`, the melting point lay within 188 to 189 °C.

In turn, `CCNCC1CCN(c2c(F)cc3c(=O)c(C(=O)O)cn(NC)c3c2F)C1` (stereo unspecified) showed a melting point of 222 to 224 °C.

In the case of `CCOC(=O)c1sc2c(c1OC(C)=O)CN(Cc1ccccc1Cl)CC2`, the melting point was 110 °C.

`O=C(NCCNCc1ccccc1)c1ccc(Cl)cn1` had a melting point of 45 to 46 °C.

As for `CC(=O)c1ccc(OCCCc2ccccc2)cc1`, the melting point was 80 to 81 °C.

Turning to `CCc1nc2c(N)nc3cc(CCCNC(=O)NC(C)C)ccc3c2n1CC1CCOCC1`, the melting point was in the range of 213 to 216 °C.

`CC(C)c1nc(Cl)nc(-c2ccc(F)cc2)c1Br` registered a melting point of 99 to 101 °C.

Take `CC(C)(C)[Si](C)(C)Oc1ccc2cc3c(cc2c1)C(=O)c1cc2ccc(O[Si](C)(C)C(C)(C)C)cc2cc1C3=O`: the melting point is less than 270 °C.

In the case of `CC(=O)CCc1ccc2c(c1)C(=O)c1ccccc1-2`, the melting point is 75 to 77 °C.

Regarding `CCOC(=O)C1=C(C)Nc2nc(N3CCOCC3)nc(N3CCOCC3)c2C1c1c(F)c(F)c(F)c(F)c1F` (stereo unspecified), the melting point stood at 195 °C.

For `CCOC(=O)C1=C(N)NC(c2ccccc2)=CC1c1cccc(Cl)c1` (stereo unspecified), the melting point came out at 161 °C.

`CC(C)(C)C(=O)Cn1ccnc1` yielded a melting point of 20 °C.

`NS(=O)(=O)c1cc2ccc(OCC3CO3)cc2s1` (stereo unspecified) yielded a melting point of 148 to 149 °C.

As for `CN(C)S(=O)(=O)c1cccc(OC(F)F)c1C#N`, the melting point lay within 100 to 102 °C.

On to `O=C(NC1CCN(CCCCc2ccccc2)C1)C12CC3CC(CC(C3)C1)C2` (stereo unspecified), for which the melting point lay within 82 to 84 °C.

`CC(=O)Oc1c(Cl)c(C)nc(C)c1-c1ccc(Oc2ccc(OC(F)(F)F)cc2)cc1` gave a melting point of 78 to 80 °C.

On to `CC(C(=O)O)c1ccc(C(=O)c2ccc(Br)o2)cc1` (stereo unspecified), for which the melting point was in the range of 108 to 110 °C.
